This passage reports IC50 results from patent publication US20240158393A1, “PYRIDONE COMPOUNDS AND METHODS OF USE” (Exelixis, Inc., priority 2021, published 2024).

What all share (format): biochemical
The target of one experiment is T1, Human Mer (Homo sapiens, UniProt Q12866).
T1 construct: Human Mer (residues R557-E882 with H628Q and R794A, 0.7 nM); purchased Eurofins Pharma Discovery Services UK Limited (KinaseProfiler service)
T1 sequence (Q12866 557-882 limits assumed): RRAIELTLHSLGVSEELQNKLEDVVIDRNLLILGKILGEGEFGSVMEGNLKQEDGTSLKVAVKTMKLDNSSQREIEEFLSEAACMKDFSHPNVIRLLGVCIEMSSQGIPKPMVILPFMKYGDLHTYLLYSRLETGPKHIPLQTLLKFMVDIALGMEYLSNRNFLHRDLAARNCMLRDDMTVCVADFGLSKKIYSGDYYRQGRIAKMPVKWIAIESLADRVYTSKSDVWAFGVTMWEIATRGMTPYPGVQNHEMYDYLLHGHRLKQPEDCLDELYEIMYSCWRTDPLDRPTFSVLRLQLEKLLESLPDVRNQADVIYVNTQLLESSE
Put plainly: Human Mer kinase assay (33P radiometric / HTRF KinEase). The following applies: protocols of Examples C-1 and/or C-2. As to the method: (§1) Kinase activity and compound inhibition were investigated using the ^33P-Phosphoryl transfer radiometric kinase assay, performed using the KinaseProfiler™ service of Eurofins Pharma Discovery Services UK Limited. Dose-response experiments were performed using nine compound concentrations in a 96-well microtiter plate. For each assay, all compounds were prepared to a 50× final assay concentration (50 μM) in 100% DMSO, then diluted in a half-log series, with the final top concentration at 1 μM. This working stock of the compound was added to the assay well as the first component in the reaction, followed by the remaining components as detailed in the following assay protocols below. The positive control wells (100% kinase activity) contain all components of the reaction including 2% DMSO (control for solvent effects), except the compound of interest. Blank wells contain all components of the reaction, with the reference inhibitor, staurosporine. This reference compound was used to abolish kinase activity and generated the 0% kinase activity base-line. IC50 values were calculated by nonlinear regression analysis using the sigmoidal dose-response (variable slope) curve fit on XLFit version 5.3 (ID Business Solutions).
(§2) Kinase activity and compound inhibition were also investigated using the HTRF® KinEase assay (Cisbio Cat #62TKOPEB) per manufacturer's instructions. In short, compounds were delivered in 300 nL volumes at 10 different concentrations in DMSO (3% final) to empty 384-well assay plates (Corning cat #3824). A mixture of enzyme, 1 μM biotinylated peptide substrate, and buffer in 10 μL volume was added. The assay was started upon the addition of ATP (at Km). The 10 μL reaction was incubated at room temperature. The reaction was stopped upon the addition of detection buffer containing streptavidin-XL665 (5 μL) and TK antibody-Eu3+(5 μL). After a 60 min incubation at room temperature, the fluorescence at 665 nm and 620 nm was read on an Envision microplate reader (Perkin Elmer).
(§3) Kinase activity normalized to DMSO (100% activity) and reference compound at 1 μM and (0% activity) was calculated using the fluorescence ratio […]. IC50 values were calculated by nonlinear regression analysis using a 4-parameter logistic curve fit in ActivityBase XE (IDBS).
(§4) Example C-1: Human Mer (residues R557-E882 with H628Q and R794A, 0.7 nM) was incubated with 8 mM MOPS pH 7.0, 0.2 mM EDTA, 30 mM NaCl, 250 μM GGMEDIYFEFMGGKKK (SEQ ID NO: 2), 10 mM magnesium acetate, and 10 μM [γ-^33P-ATP]. The reaction was initiated by the addition of the Mg/ATP mix. After incubation for 40 minutes at room temperature, the reaction was stopped by the addition of phosphoric acid to a concentration of 0.5%. A reaction aliquot of 10 μL was then spotted onto a P30 filtermat and washed four times for 4 minutes in 0.425% phosphoric acid and once in methanol prior to drying and scintillation counting. Incorporated ^33P was measured using the Wallac Microbeta scintillation counter (Perkin Elmer).
Example C-2: Human MER (residues 528-999; CarnaBio, 1 ng/well) was also incubated with enzymatic buffer (Cisbio) supplemented with 5 mM MgCl2 and 1 mM DTT. The mixture was added to the pre-plated compounds. The reaction was initiated upon addition of ATP at Km (40 μM). The reaction was incubated at room temperature for 60 min and stopped upon the addition of SA-XL665 and TK-antibody both diluted in EDTA-containing kinase detection buffer (Cisbio). The kinase activity was calculated as stated above and the IC50 values were reported.
On the technique in general: Time-resolved FRET reads energy transfer from a long-lived donor to a nearby acceptor.

The target of the next experiment is T2, Human Met (Homo sapiens, UniProt P08581).
T2 construct: Human MET (residues 956-1390)
T2 sequence (P08581 974-1390 limits assumed): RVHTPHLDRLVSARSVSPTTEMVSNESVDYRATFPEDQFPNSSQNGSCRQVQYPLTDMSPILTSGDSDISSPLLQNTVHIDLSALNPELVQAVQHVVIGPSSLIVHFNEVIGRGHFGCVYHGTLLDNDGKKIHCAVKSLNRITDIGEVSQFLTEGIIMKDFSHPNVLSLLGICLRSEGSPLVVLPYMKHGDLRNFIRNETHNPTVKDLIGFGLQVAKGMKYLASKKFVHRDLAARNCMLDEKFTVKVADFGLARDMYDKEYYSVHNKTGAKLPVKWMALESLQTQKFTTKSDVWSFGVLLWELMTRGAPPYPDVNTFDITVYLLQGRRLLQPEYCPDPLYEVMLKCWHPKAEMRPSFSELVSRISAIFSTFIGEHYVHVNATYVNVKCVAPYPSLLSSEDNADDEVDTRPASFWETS
Kind of experiment: Human Met kinase assay (33P radiometric / HTRF KinEase). Particulars: protocols of Examples D-1 and/or D-2; read-out: c-Met IC50. As to the method: as §1, §2, §3
Example D-1: Human Met (residues R974-S1390 with A1209G and V1290L, 3.4 nM) was incubated with 8 mM MOPS pH 7.0, 0.2 mM EDTA, 250 μM KKKGQEEEYVFIE (SEQ ID NO:3), 1 mM sodium orthovanadate, 5 mM […], 10 mM magnesium acetate, and 10 μM [γ-^33P-ATP]. The reaction was initiated by the addition of the Mg/ATP mix. After incubation for 40 minutes at room temperature, the reaction was stopped by the addition of phosphoric acid to a concentration of 0.5%. A reaction aliquot of 10 μL was then spotted onto a P30 filtermat and washed four times for 4 minutes in 0.425% phosphoric acid and once in methanol prior to drying and scintillation counting. Incorporated ^33P was measured using the Wallac Microbeta scintillation counter (Perkin Elmer).
Example D-2: Human MET (residues 956-1390; CarnaBio, 0.1 ng/well) was also incubated with enzymatic buffer (Cisbio) supplemented with 5 mM MgCl2, 1 mM DTT and 1 mM MnCl2. The mixture was added to the pre-plated compounds. The reaction was initiated upon addition of ATP at Km (3.0 μM). The reaction was incubated at room temperature for 40 min and stopped upon the addition of SA-XL665 and TK-antibody both diluted in EDTA-containing kinase detection buffer (Cisbio). The kinase activity was calculated as stated above and the IC50 values were reported.

A further experiment deals with T3, Human KDR (Homo sapiens, UniProt P35968).
T3 construct: Human KDR (residues K790-V1356, 55 nM); purchased Eurofins Pharma Discovery Services UK Limited (KinaseProfiler, B-1) and/or CarnaBio (B-2)
T3 sequence (P35968 790-1356): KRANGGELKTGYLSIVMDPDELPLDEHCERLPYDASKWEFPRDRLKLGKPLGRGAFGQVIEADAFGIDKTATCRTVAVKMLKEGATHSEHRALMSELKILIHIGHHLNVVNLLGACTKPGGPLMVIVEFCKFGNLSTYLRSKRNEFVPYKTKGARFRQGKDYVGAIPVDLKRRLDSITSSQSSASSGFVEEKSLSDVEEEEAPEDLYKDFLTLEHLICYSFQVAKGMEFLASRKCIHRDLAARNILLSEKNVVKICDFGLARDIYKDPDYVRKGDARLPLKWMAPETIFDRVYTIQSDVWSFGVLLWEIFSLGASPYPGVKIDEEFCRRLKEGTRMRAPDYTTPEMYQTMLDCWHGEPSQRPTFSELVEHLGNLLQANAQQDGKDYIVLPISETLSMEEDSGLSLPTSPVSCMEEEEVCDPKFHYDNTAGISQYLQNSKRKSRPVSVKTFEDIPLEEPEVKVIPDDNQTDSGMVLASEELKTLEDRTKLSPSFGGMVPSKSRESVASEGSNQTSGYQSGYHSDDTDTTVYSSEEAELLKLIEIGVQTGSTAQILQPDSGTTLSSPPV
Kind of experiment: Human KDR kinase assay (33P radiometric / HTRF KinEase). Particulars: protocols of Examples B-1 and/or B-2. The procedure:
as §1, §2, §3
as §4, with “B-1:” for “C-1:”, “KDR” for “Mer”, “K790-V1356, 55” for “R557-E882 with H628Q and R794A, 0.7”, “0.33 mg/mL myelin basic protein,” for “30 mM NaCl, 250 μM GGMEDIYFEFMGGKKK (SEQ ID NO: 2),”
Example B-2: Human KDR (residues 790-1356; CarnaBio, 0.1 ng/well) was also incubated with enzymatic buffer (Cisbio) supplemented with 5 mM MgCl2, 1 mM MnCl2, and 1 mM DTT. The mixture was added to the pre-plated compounds. The reaction was initiated upon addition of ATP at Km (4.0 μM). The reaction was incubated at room temperature for 40 min and stopped upon the addition of SA-XL665 and TK-antibody both diluted in EDTA-containing kinase detection buffer (Cisbio). The kinase activity was calculated as stated above and the IC50 values were reported.

With `COCCOc1cc2ncnc(Oc3ccc(NC(=O)c4c(C)nc(C)c(OC)c4O)cc3F)c2nc1OC` [Compound 72, N-[3-Fluoro-4-[6-methoxy-7-(2-methoxyethoxy)pyrido[3,2-d]pyrimidin-4-yl]oxyphenyl]-4-hydroxy-5-methoxy-2,6-dimethylpyridine-3-carboxamide], the IC50 was over 300 nM against Human Mer, over 300 nM at Human Met and at most 100 nM against Human KDR.

On to `COc1cc2nccc(Oc3ccc(NC(=O)c4c(C)n(C)c(C)c(OC)c4=O)cc3)c2nc1OC` [Compound 76, N-[4-[(6,7-Dimethoxy-1,5-naphthyridin-4-yl)oxy]phenyl]-5-methoxy-1,2,6-trimethyl-4-oxopyridine-3-carboxamide], for which the IC50 at Human Mer, on Human Met and against Human KDR was over 300 nM each time.

Turning to `COc1cnc2c(Oc3ccc(NC(=O)c4c(C)nc(C)c(OC)c4O)cc3)ccnc2c1` [Compound 59, 4-Hydroxy-5-methoxy-N-[4-[(7-methoxy-1,5-naphthyridin-4-yl)oxy]phenyl]-2,6-dimethylpyridine-3-carboxamide], the values for the IC50 at Human Mer, on Human Met and at Human KDR were at most 100 nM, over 300 nM and 100 to 300 nM, respectively.

Take `CCc1c(Br)c(=O)c(C(=O)Nc2ccc(Oc3ccnc4cc(OCCOC)c(OC)nc34)cc2)cn1C` [Compound 64, 5-Bromo-6-ethyl-N-[4-[[6-methoxy-7-(2-methoxyethoxy)-1,5-naphthyridin-4-yl]oxy]phenyl]-1-methyl-4-oxopyridine-3-carboxamide]: the IC50 against Human Mer was at most 100 nM; on Human Met, over 300 nM; against Human KDR, over 300 nM.

Regarding `C=C(C)c1c(C)nc(C)c(C(=O)Nc2ccc(Oc3ccnc4cc(OC)c(OC)nc34)cc2)c1O` [Compound 4, N-[4-[(6,7-Dimethoxy-1,5-naphthyridin-4-yl)oxy]phenyl]-4-hydroxy-2,6-dimethyl-5-prop-1-en-2-ylpyridine-3-carboxamide], the IC50 at Human Mer, at Human Met and against Human KDR was at most 100 nM throughout.

`COc1cnc2c(Oc3ccc(NC(=O)c4cnc(C)c(C5=CCCCC5)c4O)cc3F)ccnc2c1` [Compound 1-8, 5-(Cyclohexen-1-yl)-N-[3-fluoro-4-[(7-methoxy-1,5-naphthyridin-4-yl)oxy]phenyl]-4-hydroxy-6-methylpyridine-3-carboxamide]: the IC50 on Human Mer, at Human Met and against Human KDR was at most 100 nM in each case.

Regarding `COc1cc2nccc(Oc3cc(F)c(NC(=O)c4c(C)nc(C)c(OC)c4O)cc3F)c2nc1OC` [Compound 68, N-[4-[(6,7-dimethoxy-1,5-naphthyridin-4-yl)oxy]-2,5-difluorophenyl]-4-hydroxy-5-methoxy-2,6-dimethylpyridine-3-carboxamide], the IC50 at Human Mer was over 300 nM; at Human Met it was over 300 nM; against Human KDR, at most 100 nM.

`CCc1c(Br)c(=O)c(C(=O)Nc2cc(F)c(Oc3ccnc4cc(OC)c(OC)nc34)cc2F)cn1C` [Compound 63, 5-Bromo-N-[4-[(6,7-dimethoxy-1,5-naphthyridin-4-yl)oxy]-2,5-difluorophenyl]-6-ethyl-1-methyl-4-oxopyridine-3-carboxamide]: the IC50 is at most 100 nM at Human Mer, over 300 nM at Human Met and over 300 nM at Human KDR.

For `COc1cc2nccc(Oc3ccc(NC(=O)c4c(C)n(C)c(C)c(C(C)C)c4=O)cc3)c2nc1OC` [Compound 57, N-[4-[(6,7-Dimethoxy-1,5-naphthyridin-4-yl)oxy]phenyl]-1,2,6-trimethyl-4-oxo-5-propan-2-ylpyridine-3-carboxamide], the IC50 against Human Mer was at most 100 nM; at Human Met, over 300 nM; on Human KDR it was at most 100 nM.

Turning to `COc1cnc2c(Oc3ccc(NC(=O)c4c(C)nc(C)c(OC)c4O)cc3F)ccnc2c1` [Compound 60, N-[3-Fluoro-4-[(7-methoxy-1,5-naphthyridin-4-yl)oxy]phenyl]-4-hydroxy-5-methoxy-2,6-dimethylpyridine-3-carboxamide], the IC50 is over 300 nM at Human Mer, over 300 nM on Human Met and at most 100 nM against Human KDR.

Regarding `COc1cc2nccc(Oc3ccc(NC(=O)c4c(C)nc(C)c(OC)c4O)cc3F)c2nc1OC` [Compound 62, N-[4-[(6,7-Dimethoxy-1,5-naphthyridin-4-yl)oxy]-3-fluorophenyl]-4-hydroxy-5-methoxy-2,6-dimethylpyridine-3-carboxamide], the IC50 is at most 100 nM at Human Mer, over 300 nM at Human Met and at most 100 nM against Human KDR.

For the compound `COc1cc2nccc(Oc3ccc(NC(=O)c4c(C)n(C)c(C)c(C(C)C)c4=O)cc3F)c2nc1OC` [Compound 56, N-[4-[(6,7-Dimethoxy-1,5-naphthyridin-4-yl)oxy]-3-fluorophenyl]-1,2,6-trimethyl-4-oxo-5-propan-2-ylpyridine-3-carboxamide], the IC50 against Human Mer was at most 100 nM; at Human Met it was over 300 nM; against Human KDR, over 300 nM.

Broadly, the IC50 is the concentration that gives 50% inhibition.
